From the supplement of paper PMC10307832 come the findings set out here.

What all share (assay): relative viability (nuclei count vs DMSO), 5 days (fraction); higher = more cells survive
Compound in assay [1]: C1=CC=C(C(=C1)C2=CC=C(C=C2)C3=CSC4=C3C(=C(C(=O)N4)C#N)O)O + Nc1nc2[nH]cc(CCc3ccc(C(=O)N[C@@H](CCC(=O)O)C(=O)O)cc3)c2c(=O)[nH]1 [Pemetrexed] (partner 0.2 µM)
In a few lines: (§1)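 Five library-drug doses in √10 steps were combined with a fixed anchor-drug dose, or a single drug was given alone, by pin tool to lung cancer cell lines in 1536-well plates the day after seeding. Nuclei were stained and counted after 5 days. Relative viability is the nuclei count in treated wells over that in vehicle wells, taken as the median of duplicate plates.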

Compound in assay [2]: C1=CC=C(C(=C1)C2=CC=C(C=C2)C3=CSC4=C3C(=C(C(=O)N4)C#N)O)O + N=C(N)NC(=N)NCCc1ccccc1 [Phenformin] (partner 250 µM)
The method, boiled down:
as §1

Compound in the assay “TGX 221 + OSI-027”: CC1=CN2C(=O)C=C(N=C2C(=C1)C(C)NC3=CC=CC=C3)N4CCOCC4 [TGX 221] + COc1cccc2cc(-c3nc([C@H]4CC[C@H](C(=O)O)CC4)n4ncnc(N)c34)[nH]c12 [OSI-027] (partner 0.5 µM)
The method, boiled down: as §1

Compound in the assay “TGX 221 + Olaparib”: CC1=CN2C(=O)C=C(N=C2C(=C1)C(C)NC3=CC=CC=C3)N4CCOCC4 [TGX 221] + O=C(c1cc(Cc2n[nH]c(=O)c3ccccc23)ccc1F)N1CCN(C(=O)C2CC2)CC1 [Olaparib] (partner 8 µM)
In a few lines:
as §1

Consider NCI-H1792, for which the relative viability amounted to 0.835 in assay [1] (first compound 0.253 µM); 0.714 in assay [1] (first compound 0.8 µM); 0.649 in assay [1] (first compound 2.53 µM); 0.477 in assay [1] (first compound 8 µM); 0.113 in assay [2] (first compound 0.08 µM); 0.283 in assay [2] (first compound 0.253 µM). Also, the relative viability is 0.287 in assay [2] (first compound 0.8 µM); 0.36 in assay [2] (first compound 2.53 µM); 0.268 in assay [2] (first compound 8 µM); 0.768 with TGX 221 + OSI-027 (first compound 0.08 µM); 0.601 with TGX 221 + OSI-027 (first compound 0.253 µM); 0.71 in the assay with TGX 221 + OSI-027 (first compound 0.8 µM). In addition, the relative viability stood at 0.517 with TGX 221 + OSI-027 (first compound 2.53 µM); 0.564 in the assay with TGX 221 + OSI-027 (first compound 8 µM); 0.267 with TGX 221 + Olaparib (first compound 0.08 µM); 0.385 with TGX 221 + Olaparib (first compound 0.253 µM); 0.386 with TGX 221 + Olaparib (first compound 0.8 µM); 0.383 with TGX 221 + Olaparib (first compound 2.53 µM). Besides, in the assay with TGX 221 + Olaparib (first compound 8 µM), the relative viability came to 0.287.
